These results are taken from patent publication US10912815B2, “Inhibitors of mitochondrial fission and methods of use thereof” (The Board of Trustees of the Leland Stanford Junior …, priority 2011, dated 2021).

Entries after “also recorded” stand apart in the source; their conditions may differ. No end group written: not given here.

One test addresses Drp1/Fis1 interaction (Homo sapiens, UniProt O00429). Kind of test: Drp1-Fis1 interaction in cultured SH-SY5Y neuronal cells (crosslink, immunoprecipitation). The class given is cell-based. Also on record: endogenous in cells; host or cells: SH-SY5Y. The conditions noted are these: peptides 1 μM, FIG. 2E. The procedure:
SH-SY5Y cells were treated with Drp1 peptides P110, P109, P112 or TAT47-57 only (1 μM). Because the interaction between Drp1 and Fis1 is transient and dynamic, cells were treated with the crosslinker, DSP, (0.75 mM for 30 min), as described in a previous study (Yoon et al., 2003, Mol Cell Biol 23:5409-5420). The cells were lysed in total cell lystes (50 mM Tris-HCl, pH 7.5, containing 150 mM NaCl, 1% Triton X-100, and protease inhibitor). Immunoprecipitates were analyzed by SDS-PAGE and immunoblotting with antibodies to Drp1, VDAC, and Fis1. VDAC was used as a loading control

The target of a further test is T1, Mfn1 (Homo sapiens, UniProt Q8IWA4).
T1 sequence (Q8IWA4 1-741): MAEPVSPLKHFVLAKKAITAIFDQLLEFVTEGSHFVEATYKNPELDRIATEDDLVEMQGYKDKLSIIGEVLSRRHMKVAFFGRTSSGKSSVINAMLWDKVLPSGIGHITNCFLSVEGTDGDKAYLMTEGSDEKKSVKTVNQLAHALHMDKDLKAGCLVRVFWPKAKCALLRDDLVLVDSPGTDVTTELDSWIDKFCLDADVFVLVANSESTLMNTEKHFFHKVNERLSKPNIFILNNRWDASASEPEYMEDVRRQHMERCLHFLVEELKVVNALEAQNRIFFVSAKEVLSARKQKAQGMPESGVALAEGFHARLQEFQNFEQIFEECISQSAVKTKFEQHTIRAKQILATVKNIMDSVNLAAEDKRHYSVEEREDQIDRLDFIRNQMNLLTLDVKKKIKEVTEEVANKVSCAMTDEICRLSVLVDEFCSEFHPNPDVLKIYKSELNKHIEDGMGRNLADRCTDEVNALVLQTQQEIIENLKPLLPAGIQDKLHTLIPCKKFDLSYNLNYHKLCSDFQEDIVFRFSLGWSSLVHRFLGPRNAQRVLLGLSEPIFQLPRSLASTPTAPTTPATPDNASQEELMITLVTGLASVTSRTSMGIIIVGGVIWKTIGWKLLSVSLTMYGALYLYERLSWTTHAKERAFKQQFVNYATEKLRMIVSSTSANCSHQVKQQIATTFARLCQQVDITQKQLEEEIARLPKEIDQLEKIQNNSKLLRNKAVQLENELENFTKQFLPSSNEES
Kind of test: In vitro GTPase assay, recombinant Mfn1. As to conditions: recombinant Mfn1 25 ng, FIG. 2B. The class given is biochemical. As to the method: First, mitochondrial fission inhibitor constructs were tested to determine what, if any, effects each peptide had on enzyme (GTPase) activity. Recombinant protein Drp1, Mfn1, OPA1 or dynamin-1 (25 ng) was incubated with the indicated modulator peptides for 30 min. GTPase activity was assayed in vitro using a GTPase assay kit (Innova Biosciences, Littleton, USA, or Novus Biologicals, Littleton, Colo.) according to manufacturer's instructions.

Test [1] deals with Drp1. Kind of test: Confocal imaging of Drp1 localization on mitochondria in SH-SY5Y cells. The class given is cell-based, human. As to conditions: SH-SY5Y exposed to MPP+ or CCCP, FIG. 3G. The procedure:
The effects of MPP+ or CCCP on translocation of Drp1 in the absence and presence of P110 was measured using confocal microscopy. Cultured SH-SY5Y cells in black 96-well plate were treated with Drp1 peptide inhibitor P110 (1 μM) 30 min prior to treatment of MPP+ (2 mM) or CCCP (5 uM). After 2 hrs of treatment, cells were stained with MITOSOX™ (red mitochondrial superoxide indicator) (5 uM, for 10 min, mitochondrial ROS) or TMRM (0.5 uM, for 20 min, MMP) at 37° C. For total ROS detection, cells were treated with MPP+ or CCCP for 24 hrs. ROS level was measured by CM-H2DCFDA (1 μM for 30 min, Invitrogen). Cells were washed with PBS for three times. The detection was performed in a fluorescence microplate reader (Tecan, Infinite M1000) according to manufacturer's instructions. Measurements were normalized to the cell number counted using Hoechst staining.
The data, quantitated by Image J software, is provided in a histogram FIG. 3G.

In test [2] the test system is SH-SY5Y cells.
Description: Cell viability of stressed SH-SY5Y cells was measured by MTT assay.
In another experiment, Human SH-SY5Y cells were treated with Drp1 P108, P109 or P110 or Fis1 P111, P112 or P113 (0.5 μM) for 15 min followed by treatment with MPP+(1 mM for 24 hrs). The cell viability was then determined by MTT test.
The subject of test [3] is Drp1. In words: Drp1 translocation to mitochondria in SH-SY5Y cells (western blot of mitochondrial fractions). The format is cell-based, human. The procedure: (§1) Cultured human SH-SY5Y neuronal cells were treated with peptide P110 (1 μM) for 30 min prior to 1 hr incubation in the absence or presence of MPP+(1-methyl-4-phenylpyridinium, a specific mitochondrial complex I inhibitor) (2 mM) or CCCP (carbonyl cyanide m-chloro phenyl hydrazone) (10 μM). Western blot analysis of mitochondrial fractions was determined by the indicated antibodies. VDAC was used as a loading control.
In another experiment, mitochondria were isolated from SH-SY5Y neuronal cells exposed to MPP+ in the absence or presence of P110. Mitochondrial fractions were subjected to Western blot analysis. The levels of Drp1, Fis1, Mff, Mfn1 (mitofisinl) and OPA1 in the mitochondrial fractions were determined. Voltage-dependent […] (VDAC), a marker of mitochondria, was used as internal loading controls. Quantitative data from three independent experiments are provided a the histogram, with data shown as mean±S.E (FIG. 3D).

The subject of another test is Drp1 Ser616. Kind of test: Drp1 Ser616 phosphorylation in SH-SY5Y cells. The class given is cell-based, human. The procedure: as §1
The function of Drp1 is regulated at least in part by phosphorylation events.

Test [4] has as its system SH-SY5Y cells. Kind of test: Autophagy marker LC3 in SH-SY5Y cells. The conditions noted are these: MPP+. The class given is cell-based, human. From the text:
Autophagy is another consequence of excessive mitochondrial fission (Twig et al., 2008, EMBO J 27:433-446; Wikstrom et al., 2009, Int J Biochem Cell Biol 41:1914-1927). Autophagy can be measured by the induction of the autophagic marker LC3 (microtubule-associated protein 1, light chain 3, also known as ATG8). Cultured SH-SY5Y cells were stained by anti-LC3 antibodies and nuclei were stained by Hoechsts staining. A histogram (FIG. 9C) depicts the number of LC3-positive punctate/per cell in the indicated groups. The data are presented as the mean±S.E. of three independent experiments. Western blot analysis of LC3 I/II with anti-LC3 antibodies is shown and is presented as a histogram where the data are expressed as mean±S.E. of three independent experiments (FIG. 9D, left panel).

Sequence of Drp1/Fis1 interaction (O00429 whole entry): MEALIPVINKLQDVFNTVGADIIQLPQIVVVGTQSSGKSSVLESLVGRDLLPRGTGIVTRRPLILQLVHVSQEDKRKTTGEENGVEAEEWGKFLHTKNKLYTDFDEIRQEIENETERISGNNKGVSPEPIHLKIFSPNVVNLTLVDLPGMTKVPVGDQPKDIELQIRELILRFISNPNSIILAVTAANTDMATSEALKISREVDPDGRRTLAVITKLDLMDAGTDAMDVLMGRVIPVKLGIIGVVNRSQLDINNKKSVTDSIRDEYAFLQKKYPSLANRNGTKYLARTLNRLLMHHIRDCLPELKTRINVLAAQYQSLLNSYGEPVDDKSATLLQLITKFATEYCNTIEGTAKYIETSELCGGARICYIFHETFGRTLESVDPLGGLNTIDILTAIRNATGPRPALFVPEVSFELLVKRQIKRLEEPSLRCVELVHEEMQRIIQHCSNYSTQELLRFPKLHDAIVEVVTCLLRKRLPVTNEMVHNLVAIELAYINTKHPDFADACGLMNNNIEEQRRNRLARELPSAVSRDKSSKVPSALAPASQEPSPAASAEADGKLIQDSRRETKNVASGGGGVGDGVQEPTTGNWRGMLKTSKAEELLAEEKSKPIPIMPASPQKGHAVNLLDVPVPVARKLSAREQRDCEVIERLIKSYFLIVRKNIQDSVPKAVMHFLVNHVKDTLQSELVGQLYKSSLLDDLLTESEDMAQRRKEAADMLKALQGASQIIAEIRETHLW

Turning to “RRRQRRKKRGYGGDLLPRGS (RRRQRRKKRGYGGDLLPRGS-NH2) [P110, TAT47-57 carrier, GG linker, Drp1 region 110 (GTPase domain) peptide DLLPRGS; C-terminus C(O)-NH2]”, in the test with Drp1/Fis1 interaction, the “Drp1-Fis1 interaction in cultured SH-SY5Y neuronal cells” value was “inhibited interaction of Drp1 and Fis1; also recorded: Inhibition”. The “effect on GTPase activity of Mfn1 (mitofusin 1)” value with Mfn1 was “no effects”. In the test with Drp1 [1], the “co-localization of Drp1 with mitochondria” value is “greatly reduced”. In addition, the “mitochondrial damage and neuronal cell death (MTT)” value with SH-SY5Y cells [2] (peptides 0.5 μM 15 min, MPP+ 1 mM for 24 hrs, n=7-8, FIG. 9F) is “reduced mitochondrial damage and neuronal cell death”. Moreover, the “cell viability (MTT)” value in the test on SH-SY5Y cells [2] (peptides 1 μM each, MPP+ 2 mM for 24 hours, FIG. 9E) is “improved cell viability”. In addition, the “levels of Drp1 associated with the mitochondrial fractions under stress” value with Drp1 [3] (P110 1 μM 30 min before MPP+, CCCP, H2O2 or rotenone, FIG. 3A, 3B) is reported as “abolished the increased levels of Drp1”. Moreover, in the test with Drp1 [3] (SH-SY5Y, MPP+, FIG. 3C, 3D), the “cellular level and distribution of other mitochondrial dynamics-related proteins (MFN-1/2, OPA1, Fis1)” value is “did not affect”. Also, the “reduction of MPP+-induced translocation of Drp1 from cytosol to the mitochondria” value in the test on Drp1 [3] (SH-SY5Y, MPP+, p<0.01, n=3, FIG. 3C, 3D) is “more than 60%”. Also, the “Drp1 Ser616 phosphorylation” value in the test with Drp1 Ser616 (SH-SY5Y exposed to MPP+ or CCCP, FIG. 3F) is “abolished Ser616 phosphorylation”. Also, the “Drp1 levels and phosphorylation under normal conditions” value in the test with Drp1 Ser616 (SH-SY5Y, no stressor) was “did not affect”. In addition, the “number of LC3-positive puncti in the cells” value in the test with SH-SY5Y cells [4] (FIG. 9C) was “reduced”. The “LC3 cleavage (LC3 I to LC3 II)” value with SH-SY5Y cells [4] (FIG. 9D) was “reduced”.
